As usually defined, the IC50 is the concentration needed to halve the response being measured. A higher IC50 goes with lower potency.

This is an account of results in US10214519B2, “Phosphatidylinositol 3-kinase inhibitors” (Gilead Sciences, Inc., priority 2016, dated 2019).

The assay has as its target PI3Kβ (Homo sapiens (Human), UniProt P42338). The experiment in a line: PI3K isoform TR-FRET enzymatic assay (PI3Kβ). The class given is biochemical. The conditions noted are these: 2× Km ATP, 30 minutes at 25° C. A digest of the protocol:
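IC50 came from four-parameter dose-response fits, normalized between DMSO and 1 μM wortmannin controls. The read-out was TR-FRET (615/665 nm) of PIP3 displacing fluorescent PIP3 from Europium GRP-1 after 10 mM EDTA termination. Compounds were incubated with purified heterodimeric PI3Kβ for 30 min at 25° C.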

Sequence of PI3Kβ (P42338 whole entry, canonical isoform): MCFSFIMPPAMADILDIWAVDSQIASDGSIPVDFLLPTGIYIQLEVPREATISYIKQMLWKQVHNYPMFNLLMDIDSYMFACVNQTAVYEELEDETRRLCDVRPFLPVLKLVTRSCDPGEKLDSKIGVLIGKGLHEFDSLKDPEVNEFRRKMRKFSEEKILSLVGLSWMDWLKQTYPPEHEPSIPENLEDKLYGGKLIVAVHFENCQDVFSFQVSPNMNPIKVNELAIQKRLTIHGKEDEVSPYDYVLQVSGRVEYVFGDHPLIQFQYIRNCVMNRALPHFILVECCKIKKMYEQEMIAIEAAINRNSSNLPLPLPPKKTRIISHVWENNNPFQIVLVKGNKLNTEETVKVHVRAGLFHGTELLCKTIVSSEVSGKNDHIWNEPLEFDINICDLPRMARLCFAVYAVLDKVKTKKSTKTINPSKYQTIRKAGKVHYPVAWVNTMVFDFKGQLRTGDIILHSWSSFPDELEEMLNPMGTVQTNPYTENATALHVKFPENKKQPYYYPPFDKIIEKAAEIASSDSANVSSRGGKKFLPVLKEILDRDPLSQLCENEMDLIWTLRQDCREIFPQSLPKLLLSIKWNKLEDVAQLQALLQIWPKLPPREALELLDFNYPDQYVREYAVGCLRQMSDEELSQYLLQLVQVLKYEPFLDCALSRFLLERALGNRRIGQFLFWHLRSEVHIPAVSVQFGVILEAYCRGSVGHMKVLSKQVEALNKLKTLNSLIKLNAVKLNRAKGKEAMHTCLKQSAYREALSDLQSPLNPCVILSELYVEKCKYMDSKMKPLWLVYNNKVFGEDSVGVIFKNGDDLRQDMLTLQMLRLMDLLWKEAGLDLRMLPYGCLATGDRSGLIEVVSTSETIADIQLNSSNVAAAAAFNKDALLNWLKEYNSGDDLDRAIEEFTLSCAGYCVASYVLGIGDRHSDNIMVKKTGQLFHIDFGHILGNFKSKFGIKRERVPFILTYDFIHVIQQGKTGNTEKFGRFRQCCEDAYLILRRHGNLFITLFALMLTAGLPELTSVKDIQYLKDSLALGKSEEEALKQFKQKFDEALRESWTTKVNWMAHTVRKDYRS
Sequence of PI3Kβ (P27986 whole entry partner, canonical isoform): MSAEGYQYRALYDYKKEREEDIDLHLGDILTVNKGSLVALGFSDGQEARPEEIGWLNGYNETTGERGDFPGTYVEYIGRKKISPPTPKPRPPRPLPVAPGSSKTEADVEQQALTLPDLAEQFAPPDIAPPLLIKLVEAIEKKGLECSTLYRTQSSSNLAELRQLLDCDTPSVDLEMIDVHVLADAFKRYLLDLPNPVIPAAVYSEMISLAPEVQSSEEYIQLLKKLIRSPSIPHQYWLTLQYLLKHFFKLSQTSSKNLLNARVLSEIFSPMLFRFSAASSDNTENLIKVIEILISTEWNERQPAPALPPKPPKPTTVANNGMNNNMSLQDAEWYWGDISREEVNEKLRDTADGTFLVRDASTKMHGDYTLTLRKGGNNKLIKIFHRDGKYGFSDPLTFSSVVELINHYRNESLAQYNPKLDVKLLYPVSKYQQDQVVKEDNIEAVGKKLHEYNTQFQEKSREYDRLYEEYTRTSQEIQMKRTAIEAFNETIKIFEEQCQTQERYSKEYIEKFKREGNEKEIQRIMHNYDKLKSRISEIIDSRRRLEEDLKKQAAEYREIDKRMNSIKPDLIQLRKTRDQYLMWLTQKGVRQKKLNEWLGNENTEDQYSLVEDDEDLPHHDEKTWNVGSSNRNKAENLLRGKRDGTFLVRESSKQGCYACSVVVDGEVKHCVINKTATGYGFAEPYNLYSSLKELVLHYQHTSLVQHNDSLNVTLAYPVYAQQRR

In turn, `CCCc1nc2c(-c3cnc(Cl)[nH]3)cc(N3CCOCC3)cc2n1-c1ccnc2c(Cl)cccc12` [Example 281, 4-[7-(2-chloro-1H-imidazol-5-yl)-3-(8-chloroquinolin-4-yl)-2-propylbenzimidazol-5-yl]morpholine] showed an IC50 of 15 nM. That is a double-digit nanomolar value.
Next, `Cc1nc2c(-c3nnc(C(F)(F)F)[nH]3)cc(N3CCOCC3)cc2n1-c1ccnc2c(Cl)cccc12` [Example 136, 4-[3-(8-chloroquinolin-4-yl)-2-methyl-7-[5-(trifluoromethyl)-4H-1,2,4-triazol-3-yl]benzimidazol-5-yl]morpholine]: 48 nM; `CCc1nc2c(-c3nnc(C)[nH]3)cc(N3CCOCC3)cc2n1-c1c(Cl)cnc2c(Cl)cccc12` (atropisomer, axis not shown) [Compound 348, 4-[3-(3,8-dichloroquinolin-4-yl)-2-ethyl-7-(5-methyl-4H-1,2,4-triazol-3-yl)benzimidazol-5-yl]morpholine]: 13 nM.
Next, `Cc1nc2c(-c3cnc(Cl)[nH]3)cc(N3CCOCC3)cc2n1-c1ccnc2c(F)cccc12` [Example 260, 4-(4-(2-chloro-1H-imidazol-5-yl)-1-(8-fluoroquinolin-4-yl)-2-methyl-1H-benzo[d]imidazol-6-yl)morpholine]: 22 nM.
Next, `Clc1cccc2c(-n3c(C4COC4)nc4c(-c5nnc[nH]5)cc(N5CCOCC5)cc43)ccnc12` [Example 113, 4-[3-(8-chloroquinolin-4-yl)-2-(oxetan-3-yl)-7-(4H-1,2,4-triazol-3-yl)benzimidazol-5-yl]morpholine]: 17 nM; `Cc1nc2c(-c3ccc[nH]3)cc(N3CCOCC3)cc2n1-c1ccnc2c(Cl)cccc12` [Example 261, 4-[3-(8-chloroquinolin-4-yl)-2-methyl-7-(1H-pyrrol-2-yl)benzimidazol-5-yl]morpholine]: 24 nM; `CCc1c(C)nc2ccccc2c1-n1c(C)nc2c(-c3nnc[nH]3)cc(N3CCOCC3)cc21` [Example 62, 4-[3-(3-ethyl-2-methylquinolin-4-yl)-2-methyl-7-(4H-1,2,4-triazol-3-yl)benzimidazol-5-yl]morpholine]: 23 nM.
In the case of `c1ccc2c(-n3c(C4CC4)nc4c(-c5nnc[nH]5)cc(N5CCOCC5)cc43)ccnc2c1` [Example 17, 4-(2-cyclopropyl-1-(quinolin-4-yl)-4-(4H-1,2,4-triazol-3-yl)-1H-benzo[d]imidazol-6-yl)morpholine], it took 60 nM to reach half-maximal inhibition (IC50). Against the preceding molecule, the IC50 is about 2.6-fold higher.
In turn, `Clc1cccc2c(-n3c(C4CC4)nc4c(-c5nnc[nH]5)cc(N5CCOCC5)cc43)ccnc12` [Example 110, 4-[3-(8-chloroquinolin-4-yl)-2-cyclopropyl-7-(4H-1,2,4-triazol-3-yl)benzimidazol-5-yl]morpholine] gave an IC50 of 19 nM.
Next, `CCc1nc2ccccc2c(-n2c(C)nc3c(-c4nnc[nH]4)cc(N4CCOCC4)cc32)c1C` [Example 55, 4-[3-(2-ethyl-3-methylquinolin-4-yl)-2-methyl-7-(4H-1,2,4-triazol-3-yl)benzimidazol-5-yl]morpholine]: 27 nM; `Cc1nc2c(-c3cnc(Cl)[nH]3)cc(N3CCOCC3)cc2n1-c1ccnc2c(Cl)cc(F)cc12` [Example 289, 4-[3-(8-chloro-6-fluoroquinolin-4-yl)-7-(2-chloro-1H-imidazol-5-yl)-2-methylbenzimidazol-5-yl]morpholine]: 24 nM.
Next, `CCc1nc2c(-c3nnc[nH]3)cc(N3CCOCC3)cc2n1-c1c(Cl)cnc2c(Cl)cccc12` [Example 98, 4-[3-(3,8-dichloroquinolin-4-yl)-2-ethyl-7-(4H-1,2,4-triazol-3-yl)benzimidazol-5-yl]morpholine]: 13 nM; `Cc1nc2c(-c3ccn(S(C)(=O)=O)c3)cc(N3CCOCC3)cc2n1-c1ccnc2c(Cl)cccc12` [Example 264, 4-[3-(8-chloroquinolin-4-yl)-2-methyl-7-(1-methylsulfonylpyrrol-3-yl)benzimidazol-5-yl]morpholine]: 770 nM.
